PubChem BioAssay (NCI)
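GI50: concentration for 50% inhibition of growth. TGI denotes the concentration required for complete inhibition of growth.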

How the values were obtained:
Test in all cases: NCI tumour cell line growth inhibition, 384-well format
[1] = test system: 786-0 renal
[2] = test system: A498 renal
[3] = test system: A549 NSCLC
[4] = test system: ACHN renal
[5] = test system: BT-549 breast
[6] = test system: CAKI-1 renal
[7] = test system: CCRF-CEM leukemia
[8] = test system: COLO 205 colon
[9] = test system: DU-145 prostate
[10] = test system: EKVX NSCLC
[11] = test system: HCC-2998 colon
[12] = test system: HCT-116 colon
[13] = test system: HCT-15 colon
[14] = test system: HL-60(TB) leukemia
[15] = test system: HOP-62 NSCLC
[16] = test system: HOP-92 NSCLC
[17] = test system: HS 578T breast
[18] = test system: HT29 colon
[19] = test system: IGROV1 ovarian
[20] = test system: K-562 leukemia
[21] = test system: KM12 colon
[22] = test system: LOX IMVI melanoma
[23] = test system: M14 melanoma
[24] = test system: MALME-3M melanoma
[25] = test system: MCF7 breast
[26] = test system: MDA-MB-231 breast
[27] = test system: MDA-MB-435 melanoma
[28] = test system: MDA-MB-468 breast
[29] = test system: MOLT-4 leukemia
[30] = test system: NCI-H226 lung
[31] = test system: NCI-H23 lung
[32] = test system: NCI-H322M lung
[33] = test system: NCI-H460 NSCLC
[34] = test system: NCI-H522 lung
[35] = test system: NCI/ADR-RES ovarian
[36] = test system: OVCAR-3 ovarian
[37] = test system: OVCAR-4 ovarian
[38] = test system: OVCAR-5 ovarian
[39] = test system: PC-3 prostate
[40] = test system: RPMI-8226 leukemia
[41] = test system: RXF 393 renal
[42] = test system: SF-268 CNS
[43] = test system: SF-295 CNS
[44] = test system: SF-539 CNS
[45] = test system: SK-MEL-2 melanoma
[46] = test system: SK-MEL-28 melanoma
[47] = test system: SK-MEL-5 melanoma
[48] = test system: SK-OV-3 ovarian
[49] = test system: SN12C renal
[50] = test system: SNB-19 CNS
[51] = test system: SNB-75 CNS
[52] = test system: SR leukemia
[53] = test system: SW-620 colon
[54] = test system: T-47D breast
[55] = test system: TK-10 renal
[56] = test system: U251 glioblastoma
[57] = test system: UACC-257 melanoma
[58] = test system: UACC-62 melanoma

CC(C)[C@H](O)C(=O)N[C@@H](C)C(=O)N[C@@H]1C(=O)N(C)CCc2ccccc21
GI50 [1]: > 100 µM | TGI [1]: > 100 µM | GI50 [2]: > 100 µM | TGI [2]: > 100 µM | GI50 [3]: > 100 µM | TGI [3]: > 100 µM | GI50 [4]: > 100 µM | TGI [4]: > 100 µM | GI50 [5]: > 100 µM | TGI [5]: > 100 µM | GI50 [6]: > 100 µM | TGI [6]: > 100 µM | GI50 [7]: > 100 µM | TGI [7]: > 100 µM | GI50 [8]: > 100 µM | TGI [8]: > 100 µM | GI50 [9]: > 100 µM | TGI [9]: > 100 µM | GI50 [10]: > 100 µM | TGI [10]: > 100 µM | GI50 [11]: > 100 µM | TGI [11]: > 100 µM | GI50 [12]: > 100 µM | TGI [12]: > 100 µM | GI50 [13]: > 100 µM | TGI [13]: > 100 µM | GI50 [14]: > 100 µM | TGI [14]: > 100 µM | GI50 [15]: > 100 µM | TGI [15]: > 100 µM | GI50 [16]: > 100 µM | TGI [16]: > 100 µM | GI50 [17]: > 100 µM | TGI [17]: > 100 µM | GI50 [18]: > 100 µM | TGI [18]: > 100 µM | GI50 [19]: > 100 µM | TGI [19]: > 100 µM | GI50 [20]: > 100 µM | TGI [20]: > 100 µM | GI50 [21]: > 100 µM | TGI [21]: > 100 µM | GI50 [22]: > 100 µM | TGI [22]: > 100 µM | GI50 [23]: > 100 µM | TGI [23]: > 100 µM | GI50 [24]: > 100 µM | TGI [24]: > 100 µM | GI50 [25]: > 100 µM | TGI [25]: > 100 µM | GI50 [26]: > 100 µM | TGI [26]: > 100 µM | GI50 [27]: > 100 µM | TGI [27]: > 100 µM | GI50 [28]: > 100 µM | TGI [28]: > 100 µM | GI50 [29]: > 100 µM | TGI [29]: > 100 µM | GI50 [30]: > 100 µM | TGI [30]: > 100 µM | GI50 [31]: > 100 µM | TGI [31]: > 100 µM | GI50 [32]: > 100 µM | TGI [32]: > 100 µM | GI50 [33]: > 100 µM | TGI [33]: > 100 µM | GI50 [34]: > 100 µM | TGI [34]: > 100 µM | GI50 [35]: > 100 µM | TGI [35]: > 100 µM | GI50 [36]: > 100 µM | TGI [36]: > 100 µM | GI50 [37]: > 100 µM | TGI [37]: > 100 µM | GI50 [38]: > 100 µM | TGI [38]: > 100 µM | GI50 [39]: > 100 µM | TGI [39]: > 100 µM | GI50 [40]: > 100 µM | TGI [40]: > 100 µM | GI50 [41]: > 100 µM | TGI [41]: > 100 µM | GI50 [42]: > 100 µM | TGI [42]: > 100 µM | GI50 [43]: > 100 µM | TGI [43]: > 100 µM | GI50 [44]: > 100 µM | TGI [44]: > 100 µM | GI50 [45]: > 100 µM | TGI [45]: > 100 µM | GI50 [46]: > 100 µM | TGI [46]: > 100 µM | GI50 [47]: > 100 µM | TGI [47]: > 100 µM | GI50 [48]: > 100 µM | TGI [48]: > 100 µM | GI50 [49]: > 100 µM | TGI [49]: > 100 µM | GI50 [50]: > 100 µM | TGI [50]: > 100 µM | GI50 [51]: > 100 µM | TGI [51]: > 100 µM | GI50 [52]: > 100 µM | TGI [52]: > 100 µM | GI50 [53]: > 100 µM | TGI [53]: > 100 µM | GI50 [54]: > 100 µM | TGI [54]: > 100 µM | GI50 [55]: > 100 µM | TGI [55]: > 100 µM | GI50 [56]: > 100 µM | TGI [56]: > 100 µM | GI50 [57]: > 100 µM | TGI [57]: > 100 µM | GI50 [58]: > 100 µM | TGI [58]: > 100 µM
